Test results reported in publication PMC12073438, “Stereoselectivity of In Vivo Processes and Bioactivity of Farrerol Enantiomers” (Molecules, 2025).

Experiments:
CYP2A6 = molecular target: T1, CYP2A6 (Homo sapiens, UniProt P11509); experiment: CYP inhibition in liver microsomes (coumarin); conditions: CYP 2A6; marker substrate coumarin; liver microsomes
T1 sequence (P11509 1-494): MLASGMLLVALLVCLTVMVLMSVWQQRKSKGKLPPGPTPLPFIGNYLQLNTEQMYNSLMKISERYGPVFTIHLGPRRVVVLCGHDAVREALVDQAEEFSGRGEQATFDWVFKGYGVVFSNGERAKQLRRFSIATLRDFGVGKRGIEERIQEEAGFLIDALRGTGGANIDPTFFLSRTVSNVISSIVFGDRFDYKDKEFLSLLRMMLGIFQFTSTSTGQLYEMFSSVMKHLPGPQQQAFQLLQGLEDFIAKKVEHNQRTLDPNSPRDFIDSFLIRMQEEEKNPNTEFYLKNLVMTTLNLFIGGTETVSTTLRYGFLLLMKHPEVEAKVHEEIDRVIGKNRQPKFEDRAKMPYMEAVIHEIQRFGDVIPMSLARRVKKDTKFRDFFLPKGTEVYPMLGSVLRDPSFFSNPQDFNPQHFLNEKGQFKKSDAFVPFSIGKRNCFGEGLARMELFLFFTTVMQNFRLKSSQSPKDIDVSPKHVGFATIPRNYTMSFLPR
Description: (§1) A liver microsome working solution (20 mg/mL) contained potassium phosphate buffer (0.1 M, pH 7.4), hepatic microsomes and marker substrate solution, which phenacetin, diclofenic acid, S-mephenytoinwer, dextromethorphan, midazolam, coumarin and chlorzoxazone used as substrates for […], CYP2C9, CYP2C19, CYP2D6, CYP3A4/5, CYP2A6 and CYP2E1, respectively. In brief, 238.5 µL of liver microsome working solution was placed in a 1 mL EP tube. […] The reaction was started by injecting NADPH (1 mM), and the resulting mixture was incubated at 37 °C for 10 min. After centrifuging at 4000 rpm for 15 min, the supernatant was transferred and analyzed using LC-MS/MS to detect the corresponding metabolites. Each incubation was conducted in triplicate (n = 3).
(§2) An API 4000 LC/tandem mass spectrometry was used to analyze the concentration of metabolites of various chemical agents using a validated mode. An Atlantis T3 column (2.1 mm × 50 mm, 5 μm) was utilized, employing mobile phases consisting of a 0.1% formic acid solution (A) and a 0.1% acetonitrile formate solution (B). […] As for the detection of CYP 2E1 metabolite, the Flow composition was as follows: 0–0.30 min, 10% B; 0.30–1.30 min, 10–55% B; 1.30–1.50 min, 55–95% B; 1.50–2.00 min, 95% B; 2.00–2.01 min, 95–10% B; the low rate was 0.85 mL/min. ESI was conducted in positive ion mode. MRM was utilized to quantify each metabolite, detecting the following transitions: m/z 152.1/110 for acetaminophen, 312.1/230.0 for 4′-Hydroxydiclofenac, 235.0/150.0 for 4′-hydroxymephentoin, 258.2/199.1 for Dextrorphan, 342.1/203.0 for 1′-hydroxymidazolam, 161.1/133.1 for hydroxycoumarin, and 184.0/120.0 for 6-hydroxyclozoxadone.

[1] = Stereoselective pharmacokinetics in rat plasma; format: in vivo, Sprague–Dawley rats
Description: The pharmacokinetic data were optimally characterized by a noncompartmental model. The mean concentration-time profiles for the farrerol enantiomers are illustrated in Figure 3, along with the corresponding key pharmacokinetic parameters presented in Table 2.
Twenty-five rats were randomly divided into five experimental groups (A, B, C, D, and E). Groups A and B received farrerol racemate via intragastric administration at doses of 150 mg/kg and 75 mg/kg, respectively. Group C was administered 4 mg/kg of farrerol racemate through caudal intravenous administration. […] Blood samples (300 μL) were obtained from the orbital venous plexus into heparinized tubes at various time points: 0.25, 0.5, 1, 2, 3, 5, 7, 9, 12, and 24 h following gavage administration, and at 0.083, 0.167, 0.25, 0.5, 1, 1.5, 2, 2.5, 3, and 5 h post-intravenous administration. Plasma was separated by centrifugation (3000 rpm, 10 min) and stored at −80 °C until analysis.
A total of 150 μL of plasma and 50 μL of the internal standard solution were added to a 1.5 mL EP tube and mixed using a vortex for 30 s. Subsequently, 500 μL of ether was introduced, and the mixture was vortexed for 5 min. Following centrifugation at 10,000 rpm for 10 min, the resulting organic layer was carefully transferred to a separate tube. Each sample underwent two extraction processes. The resulting ether layer was then evaporated to dryness using a continuous air stream at room temperature. A 250 μL aliquot of methanol was employed to re-dissolve the residue, utilizing vortex mixing for 2 min. Following centrifugation at 14,000 rpm for 10 min, the supernatant was subsequently injected into the HPLC-MS system for analysis.
(§3) Stereoselective chromatographic analysis of farrerol enantiomers was conducted utilizing an ACQUITY UPLC I-Class UPLC system (Waters, Milford, MA, USA), which is equipped with a quaternary pump and an autosampler. The chiral separation was carried out employing a Chiralpak OJ-RH column (250 mm × 4.6 mm, 5 μm), which was obtained from Daicel Chemical Industries (Shanghai, China). The mobile phase consisted of ACN-H2O (60:40, v/v), and the constant flow rate was 0.5 mL/min. The column temperature was set at 25 °C, and the injection volume was 10 μL.
(§4) Mass detection was conducted using a triple quadrupole mass spectrometer (Waters Co., USA) equipped with an electrospray ionization (ESI) source. The detection of enantiomers and internal standards (IS) was carried out in multiple reaction monitoring (MRM) mode utilizing negative ionization. The m/z 299→179 for enantiomers and m/z 267→252 for IS were selected as detecting ions for quantitation. The collision energies (CE) were established at 22 eV and 20 eV, respectively. The primary mass spectrometry (MS) parameters were configured as follows: capillary voltage was set to 3.5 kV, ion source temperature was maintained at 150 °C, desolvation gas flow rate was 800 L/h, and the cone voltage (CV) was adjusted to 1.3 V.
(§5) Pharmacokinetic analysis was conducted utilizing the Drug and Statistics (DAS) 2.0 software provided by the Chinese Pharmacological Society. To assess the differences in pharmacokinetic parameters, the IC50 values of the evaluated CYP enzymes and the permeability coefficients between the two farrerol enantiomers, paired sample t-tests and independent sample t-tests were performed. Statistical significance was defined as * p < 0.05 and ** p < 0.01. All results are presented as mean values ± standard deviation (SD).

[2] = Stereoselective pharmacokinetics in rat liver tissue; format: in vivo, Sprague–Dawley rats; conditions: rat liver tissue; i.g. 40 mg/kg racemate, within 24 h
Description: (§6) Forty-two rats were divided randomly into seven groups (6 rats per time point at 0.5, 1, 2, 4, 8, 12, and 24 h) and were orally administered farrerol racemate at a dose of 40 mg/kg. Rats from each group were euthanized, and kidney and liver tissues were subsequently obtained. After washing three times using 0.9% sodium chloride solution, the attached blood and fat tissues were removed. Afterward, 0.5 g of the precisely weighed liver and kidney tissues were added to 1 mL 0.9% sodium chloride solution and homogenized in an ice bath. Subsequently, 150 µL of supernatant was transferred into a 2.0 mL EP tube for pre-treatment, in the same way as the pretreatment of plasma samples (see Section 3.4.1).
as §3, §4, §5

[3] = Stereoselective pharmacokinetics in rat kidney tissue; format: in vivo, Sprague–Dawley rats; conditions: rat kidney tissue; i.g. 40 mg/kg racemate, within 24 h
Description: as §6, §3, §4, §5

CYP3A4/5 = experiment: CYP inhibition in liver microsomes (midazolam); conditions: human, microsomes, pH 7.4
Description: as §1, §2

CYP2C9 = CYP2C9 (Homo sapiens, UniProt P11712); experiment: CYP inhibition in liver microsomes (diclofenac); conditions: CYP 2C9, marker substrate diclofenac
Description: as §1, with “After centrifuging at 4000 rpm for 15 min, the supernatant was transferred and analyzed using LC-MS/MS to detect the corresponding metabolites.” left out
An API 4000 LC/tandem mass spectrometry was used to analyze the concentration of metabolites of various chemical agents using a validated mode. An Atlantis T3 column (2.1 mm × 50 mm, 5 μm) was utilized, employing mobile phases consisting of a 0.1% formic acid solution (A) and a 0.1% acetonitrile formate solution (B). […] ESI was conducted in positive ion mode.

CYP1A2 = molecular target: T2, CYP1A2 (Homo sapiens, UniProt P05177); experiment: CYP inhibition in liver microsomes (phenacetin); conditions: CYP 1A2, marker substrate phenacetin
T2 sequence (P05177 1-516): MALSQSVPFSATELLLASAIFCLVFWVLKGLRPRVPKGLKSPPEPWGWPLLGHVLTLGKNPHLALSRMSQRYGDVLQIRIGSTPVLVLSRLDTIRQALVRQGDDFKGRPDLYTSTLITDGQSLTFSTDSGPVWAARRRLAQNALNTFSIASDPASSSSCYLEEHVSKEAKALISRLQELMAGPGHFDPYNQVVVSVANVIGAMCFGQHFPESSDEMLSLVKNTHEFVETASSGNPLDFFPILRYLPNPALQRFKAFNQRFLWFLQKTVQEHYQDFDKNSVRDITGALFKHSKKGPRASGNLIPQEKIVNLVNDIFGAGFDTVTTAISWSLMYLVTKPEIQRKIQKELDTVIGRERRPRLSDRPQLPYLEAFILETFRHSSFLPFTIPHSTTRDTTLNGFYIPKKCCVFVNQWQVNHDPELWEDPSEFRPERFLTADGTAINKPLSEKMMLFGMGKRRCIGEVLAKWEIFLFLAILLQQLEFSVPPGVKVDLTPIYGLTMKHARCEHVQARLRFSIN
Description: as §1, §2

CYP2C9, sequence (P11712 whole entry): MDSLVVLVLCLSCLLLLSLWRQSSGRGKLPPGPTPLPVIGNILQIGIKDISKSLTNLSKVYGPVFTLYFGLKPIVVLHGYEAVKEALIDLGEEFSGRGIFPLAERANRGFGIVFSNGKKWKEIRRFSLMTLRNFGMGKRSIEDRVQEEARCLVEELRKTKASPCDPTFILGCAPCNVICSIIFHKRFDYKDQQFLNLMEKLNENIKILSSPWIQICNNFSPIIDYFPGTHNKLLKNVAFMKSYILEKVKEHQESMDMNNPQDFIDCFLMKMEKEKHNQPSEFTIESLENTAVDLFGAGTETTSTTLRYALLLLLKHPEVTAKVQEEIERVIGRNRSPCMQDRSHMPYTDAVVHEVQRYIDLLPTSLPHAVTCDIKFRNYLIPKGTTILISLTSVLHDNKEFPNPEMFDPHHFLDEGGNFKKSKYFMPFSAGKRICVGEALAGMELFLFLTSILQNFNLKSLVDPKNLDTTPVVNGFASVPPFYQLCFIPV

N[C@@H]1C[C@H]1c1ccccc1 (racemic) [Tranylcypromine, reference compound]
IC50 (CYP2A6): 383 nM

Cc1c(O)c(C)c2c(c1O)C(=O)CC(c1ccc(O)cc1)O2 (racemic) [racemic farrerol, 2,3-dihydro-5,7-dihydroxy-2-(4-hydroxyphenyl)-6,8-dimethyl-4-benzopyrone]
enantiomeric fraction (EF) = E(+)/(E(+)+E(−)) ([1]; intravenous administration of racemate): around 0.7 | enantiomeric fraction (EF) = E(+)/(E(+)+E(−)) ([1]; oral administration of racemate (all doses)): greater than 0.6 | enantiomeric fraction (EF) = E(+)/(E(+)+E(−)) ([1]; oral dose of 75 mg/kg, approximately 1.5 to 24 h): around 0.8 | enantiomeric fraction (EF) = E(+)/(E(+)+E(−)) [2]: less than 0.5 | enantiomeric fraction (EF) = E(+)/(E(+)+E(−)) [3]: less than 0.5

CC(=O)N1CCN(c2ccc(OCC3COC(Cn4ccnc4)(c4ccc(Cl)cc4Cl)O3)cc2)CC1 (stereo not drawn) [ketoconazole, reference compound]
IC50 at 10 min (CYP3A4/5): 10.4 nM

Nc1ccc(S(=O)(=O)Nc2ccnn2-c2ccccc2)cc1 [sulfaphenazole, reference compound]
IC50 (CYP2C9): 219 nM

O=c1cc(-c2ccccc2)oc2ccc3ccccc3c12 [β-naphthoflavone, reference compound]
IC50 (CYP1A2): 129 nM
